The values below come from US7323541B2, “Polypeptide DNA thereof and use of the same” (Takeda Pharmaceutical Company Limited, priority 2001, dated 2008).

Experiment [1] has as its target T1, TGR23-2 expressing CHO cells (Homo sapiens, UniProt Q6W5P4, N107I/Q344R).
T1 construct: the clones having the cDNA of TGR23-2, which is contained in pTB2174, were selected; expressed in transfected cells; host or cells: hamster CHO/dhfr- cells, vector pAKKO-111H (pAKKO-TGR23-2)
T1 sequence (Q6W5P4 1-371 N107I/Q344R): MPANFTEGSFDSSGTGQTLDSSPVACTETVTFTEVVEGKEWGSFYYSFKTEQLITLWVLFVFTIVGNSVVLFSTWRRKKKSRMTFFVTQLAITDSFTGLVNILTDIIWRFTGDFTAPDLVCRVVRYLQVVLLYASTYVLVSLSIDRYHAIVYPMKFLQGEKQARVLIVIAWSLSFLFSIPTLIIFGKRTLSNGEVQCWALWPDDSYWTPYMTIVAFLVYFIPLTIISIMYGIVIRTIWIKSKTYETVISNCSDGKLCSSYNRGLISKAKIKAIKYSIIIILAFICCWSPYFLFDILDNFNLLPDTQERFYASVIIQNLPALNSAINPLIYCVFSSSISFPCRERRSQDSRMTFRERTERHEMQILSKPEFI
Put plainly: Intracellular Ca ion concentration increasing activity using FLIPR. It counts as cell-based. Particulars: variety of concentrations. On the procedure:
(§1) An enhancing activity of intracellular Ca^2+ release was assayed using FLIPR (Molecular Devices, Inc.). The CHO/TGR23-2 cells prepared in Example 1 and selected in Example 2 were plated on 96-well plate at 3×10^4 cells/well and cultured for 24 hours. A loading buffer was prepared by adding 1 vial of Fluo 3-AM to 10 ml of Hanks' solution (pH7.4) containing 2.5 mM Probenecid and 20 mM HEPES (hereafter, Hanks' solution (pH7.4) containing 2.5 mM Probenecid and 20 mM HEPES may be referred to as a washing buffer). The culture medium was discarded from the culture plate and 100 μl/well of the loading buffer were added to the cells. Then, the cells were incubated for 60 minutes in the incubator. After the loading buffer was removed from the culture plate and the cells were washed with the washing buffer, the plate was put in place of FLIPR. A sample was prepared by adding a sample buffer, which 2 mg/ml BSA and 1 mg/ml CHAPS were added to the washing buffer, to lyophilized product, stirring and treating by ultrasonication for 30 minutes, and transferred to 96-well sample plate. This sample plate was also put in place for assay. The enhancing activity of intracellular Ca^2+ release was measured as an increase of fluorescent intensity, which is raised by addition of the sample. Human TGR23-2 ligand (1-20) obtained in Example 17 was administered to TGR23-1 expressing CHO cells and TGR23-2 expressing CHO cells at a variety of concentrations according to the method described in Example 5, and the increasing activity of intracellular Ca ion concentration was determined using FLIPR. […] Rat TGR23-2 ligand (1-18) prepared by the method described in Example 19 and mouse TGR23-2 ligand (1-20) prepared by the method described in Example 20 were administered to TGR23-1 expressing CHO cells and TGR23-2 expressing CHO cells at a variety of concentrations according to the method described in Example 5, and the increasing activity of intracellular Ca ion concentration was determined using FLIPR.

In experiment [2] the target is T2, TGR23-1 expressing CHO cells (Homo sapiens, UniProt Q6W5P4).
T2 construct: the clones having the cDNA of TGR23-1, which is contained in pTB2173, were selected; expressed in transfected cells; host or cells: hamster CHO/dhfr- cells, vector pAKKO-111H (pAKKO-TGR23-1), clones No. 49 and No. 52
T2 sequence (Q6W5P4 1-371): T1 sequence (Q6W5P4 1-371 N107I/Q344R) with I107N, R344Q
The description is as above. It counts as cell-based. The following applies: variety of concentrations. On the procedure: as §1

Experiment [3] has as its target T3, membrane fraction of TGR23-2 expressing CHO cells (Homo sapiens, UniProt Q6W5P4, N107I/Q344R).
T3 construct: the clones having the cDNA of TGR23-2, which is contained in pTB2174, were selected; expressed in transfected cells; host or cells: hamster CHO/dhfr- cells, vector pAKKO-111H (pAKKO-TGR23-2)
T3 sequence (Q6W5P4 1-371 N107I/Q344R): T1 sequence (Q6W5P4 1-371 N107I/Q344R)
Put plainly: GTPγS binding activity in membrane fraction. It counts as biochemical. On the procedure: Enhancing activity of binding of [^35S]-Guanosine 5′-(γ-thio) triphosphate in the membrane fraction of TGR23-2 expressing CHO cells was measured by the following method. Firstly, it is described about preparation of membrane fraction. Twenty (20) ml of homogenation buffer (10 mM HEPES (pH7.3), 5 mM EDTA, 0.52 mM PMSF, 10 μg/ml pepstatin, 8 μg/ml E64, 20 μg/ml leupeptin) was added to 8×10^7 of TGR23-2 expressing CHO cells, and the cells were disrupted using Polytron (12,000 rpm, 30 seconds×3 times). The cell-disrupted fluids were centrifuged (1,000 g for 15 minutes) to get supernatant. Subsequently the supernatant was ultracentrifuged (Beckman type 30 rotor, 30,000 rpm, one hour), and the precipitate obtained was collected as a membrane fraction of TGR23-2 expressing CHO cells. The GTPγS binding activity was assayed as follows. The membrane fraction of TGR23-2 expressing CHO cells was diluted with membrane dilution buffer (50 mM Tris-HCl buffer (pH7.4), 5 mM MgCl2, 150 mM NaCl, 0.03% NaN3, 0.1% BSA, 1 μM GDP) to get cell membrane fraction solution for assay at the protein concentration of […]. Two (2) μl of 50 nM [^35S]-guanosine 5′-(γ-thio) triphosphate (NEN) and sample were added to 200 μl of cell membrane fraction solution for assay, and the mixture was incubated at 25° C. for one (1) hour. The mixture was filtered, and the filter was washed twice with 1.5 ml of washing buffer (50 mM Tris-HCl buffer (pH7.4), 5 mM MgCl2, 1 mM EDTA, 0.03% NaN3, 0.1% BSA). Then the radioactivity on the filter was measured by liquid scintillation counter. Human TGR23-2 ligand (1-20) prepared by the method described in Example 17, rat TGR23-2 ligand (1-18) prepared by the method described in Example 19 and mouse TGR23-2 ligand (1-20) prepared by the method described in Example 20 were administered to TGR23-2 expressing CHO cells at a variety of concentrations according to the method described above, and the GTPγS binding activity was determined.
A general note: GTPγS resists hydrolysis and so accumulates on activated G proteins.

Experiment [4] has as its target T1, TGR23-2 expressing CHO cells. The experiment can be described thus: Enhancing activity of intracellular cAMP production. In kind it is cell-based. The following applies: with forskolin. On the procedure:
The CHO/TGR23-2 cells prepared in Example 1 and selected in Example 2 were plated on 24-well plate at 7×10^4 cells/well and cultured for 48 hours. The cells were washed with αMEM medium (pH7.5) containing 0.2 mM 3-isobutyl-methylxanthine, 0.05% BSA and 20 mM HEPES (hereafter, αMEM medium (pH7.5) containing 0.2 mM 3-isobutyl-methylxanthine, 0.05% BSA and 20 mM HEPES may be referred to as a reaction buffer). Subsequently, 0.5 ml of the reaction buffer was added, and the solution was incubated for 30 minutes in the incubator. The reaction buffer was removed and 0.25 ml of the reaction buffer was freshly added to the cells. Then, the cells were admixed with a sample and 0.25 ml of the reaction buffer containing 2 μM forskoline, and incubated at 37° C. for 30 minutes. Intracellular cAMP was extracted by removing the reaction solution and adding 0.5 ml of the solution for cell lysis attached with cAMP EIA Kit (Applied Biosystems). The cAMP level in the extract was quantified with the same kit. Based on this measured value, a calculation was made using the following formula, and the enhancing/inhibiting activity for cAMP production was represented by % of control. The activity of the sample-adding group was calculated using a control value configured in each plate. % of control=(X−C)/(T−C)×100
X: The cAMP level in the sample-adding group
T: The means of the cAMP level in 3 wells of positive control (no sample, with stimulus of forskoline)
C: The means of the cAMP level in 3 wells of negative control (no sample, without stimulus of forskoline)
In addition, for the same sample, in accordance with the method shown in Example 4, an arachidonic acid metabolite releasing activity was assayed.
Four microlitters each of the above-mentioned HPLC active fractions of rat whole brain extracts (Fraction numbers 18, 20 and 22 to 23) was added to 100 μl of 0.2 M ammonium acetate and incubated at 37° C. for 2 hours with 3 μg of Pronase. Subsequently, Pronase added, was inactivated by heating in boiling water for 10 minutes. To this solution, one ml of distilled water containing 0.05 mg of BSA and 0.05 mg of CHAPS was added. Further, it was lyophilized. For the lyophilized sample, enhancing activity for intracellular cAMP production was assayed by adding to TGR23-2 expressing CHO cells according to the method shown in Example 3.
Human TGR23-2 ligand (1-20) prepared by the method described in Example 17 was administered to TGR23-1 expressing CHO cells and TGR23-2 expressing CHO cells at a variety of concentrations according to the method described in Example 3, and the enhancing activity of intracellular cAMP production was determined.
Further, human TGR23-2 ligand (1-20) and rat TGR23-2 ligand (1-18) prepared by the method described in Example 19 were administered to TGR23-1 expressing CHO cells and TGR23-2 expressing CHO cells at a variety of concentrations, and the same assay as described above was carried out under the condition of no forskolin. A calculation was made using the following formula, and the enhancing activity for cAMP production was represented by % of control: % of control=X/C×100;
X: The cAMP level in the sample-adding group; and
C: Control (no sample, without stimulus of forskoline).

Numbering of substitutions follows the chain as printed. Where no end group is shown, it is not given here.

Consider “SFRNGVGSGAKKTSFRRAKQ [mouse TGR23-2 ligand (1-20)]”, for which the “increase of intracellular Ca ion concentration” value in experiment [1] and in experiment [2] was “clearly enhance an increase of intracellular Ca ion concentration” throughout. Also, the GTPγS binding activity result in experiment [3] is listed as “enhance the GTPγS binding activity”. Take “SFRNGVGSGVKKTS (Rat) [rat TGR23-2 ligand (1-14)]”: the “enhancing activity of intracellular cAMP production” value in experiment [4] is “specifically exhibits an enhancing activity for cAMP production”. Take “SFRNGVGSGVKKTSF (Rat) [rat TGR23-2 ligand (1-15)]”: the “enhancing activity of intracellular cAMP production” value in experiment [4] is given as “specifically exhibits an enhancing activity for cAMP production”.
